The target in assay [1] is T1, human SGLT1 (Homo sapiens, UniProt P13866).
T1 construct: expressed in transfected cells
T1 sequence (P13866 1-664): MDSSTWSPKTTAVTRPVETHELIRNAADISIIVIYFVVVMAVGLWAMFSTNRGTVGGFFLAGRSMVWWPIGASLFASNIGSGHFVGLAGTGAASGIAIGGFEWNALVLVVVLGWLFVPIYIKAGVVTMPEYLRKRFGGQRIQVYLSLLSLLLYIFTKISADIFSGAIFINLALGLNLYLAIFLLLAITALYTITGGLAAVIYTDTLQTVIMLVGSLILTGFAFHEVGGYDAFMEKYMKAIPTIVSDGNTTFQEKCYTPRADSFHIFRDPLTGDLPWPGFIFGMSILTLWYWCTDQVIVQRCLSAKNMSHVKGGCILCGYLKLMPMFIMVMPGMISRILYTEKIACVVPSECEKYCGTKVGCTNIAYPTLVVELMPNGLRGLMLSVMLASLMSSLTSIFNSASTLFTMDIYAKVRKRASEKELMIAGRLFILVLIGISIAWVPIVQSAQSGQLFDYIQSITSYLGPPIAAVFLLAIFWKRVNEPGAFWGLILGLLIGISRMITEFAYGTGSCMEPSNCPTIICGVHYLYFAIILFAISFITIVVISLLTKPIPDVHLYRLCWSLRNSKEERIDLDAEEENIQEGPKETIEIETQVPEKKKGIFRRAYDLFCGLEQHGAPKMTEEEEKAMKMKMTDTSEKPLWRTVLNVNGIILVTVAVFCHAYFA
Nature of the assay: Assay for inhibitory effects on human SGLT1 activity (uptake of methyl-α-D-glucopyranoside in CS1-5-11D cells). Format: cell-based. As to conditions: CHO-K1 cells stably expressing human SGLT1 (CS1-5-11D); 50% inhibition of uptake of 1 mM 14C-labeled/non-labeled methyl-α-D-glucopyranoside, 37° C., 1 hour. As for the experimental part: Test Example 1 Assay for Inhibitory Effects on Human SGLT1 Activity 1) Cloning and Construction of the Vector Expressing Human SGLT1 The cDNA library was prepared for PCR amplification by reverse transcription from total RNA deprived from human small intestine (Ori gene) using oligo-dT as a primer. Using this cDNA library as a template, the DNA fragment coding 1 to 2005 bp of human SGLT1 (ACCESSION: M24847), which was reported by Hediger et al., was amplified by PCR method and inserted into the multi-cloning site of pcDNA3.1 (−) (Invitrogen). The DNA sequence inserted was perfectly matched to the previously reported sequence. 2) Establishment of Cell Line Stably Expressing Human SGLT1 The expression vector of human SGLT1 was digested by Sca I into a linear DNA. The linear DNA was transfected into CHO-K1 cells by means of lipofection (Effectene Transfection Reagent: QIAGEN). Neomycin resistant cell lines were selected by culture in the medium containing G418 (1 mg/mL, LIFE TECHNOLOGIES), and then the activity against the uptake of methyl-α-D-glucopyranoside was measured by the method described below. […] Radio activity was measured by means of micro-scintillation counter TopCount (Packard). One hundred % was set to the difference between the uptake in the control group and the basal uptake, and the uptake of methyl α-D-glucopyranoside at each drug concentration were calculated. […]

In assay [2] the target is T2, human SGLT2 (Homo sapiens, UniProt P31639).
T2 construct: expressed in transfected cells
T2 sequence (P31639 1-672): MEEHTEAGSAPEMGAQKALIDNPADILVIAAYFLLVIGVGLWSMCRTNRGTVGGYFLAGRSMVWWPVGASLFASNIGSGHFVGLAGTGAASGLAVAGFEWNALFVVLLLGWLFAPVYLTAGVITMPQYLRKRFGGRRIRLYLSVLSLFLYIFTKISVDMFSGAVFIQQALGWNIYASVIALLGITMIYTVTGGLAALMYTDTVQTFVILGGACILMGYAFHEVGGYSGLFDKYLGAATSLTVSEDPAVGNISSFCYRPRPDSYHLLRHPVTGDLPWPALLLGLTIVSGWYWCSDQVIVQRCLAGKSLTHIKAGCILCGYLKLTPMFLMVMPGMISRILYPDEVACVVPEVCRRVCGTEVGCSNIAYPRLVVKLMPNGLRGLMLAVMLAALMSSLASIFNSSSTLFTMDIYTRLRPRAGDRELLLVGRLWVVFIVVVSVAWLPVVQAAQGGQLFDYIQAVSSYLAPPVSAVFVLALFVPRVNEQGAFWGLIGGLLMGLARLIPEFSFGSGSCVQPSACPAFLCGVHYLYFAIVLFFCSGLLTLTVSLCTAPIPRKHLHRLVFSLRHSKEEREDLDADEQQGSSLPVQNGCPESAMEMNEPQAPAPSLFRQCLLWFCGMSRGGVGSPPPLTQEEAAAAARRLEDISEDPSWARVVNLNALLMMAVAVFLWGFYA
Nature of the assay: Assay for inhibitory effects on human SGLT2 activity (uptake of methyl-α-D-glucopyranoside in CS2-5E cells). Format: cell-based. To be noted: CHO-K1 cells stably expressing human SGLT2 (CS2-5E); 50% inhibition of uptake of 1 mM 14C-labeled/non-labeled methyl-α-D-glucopyranoside, 37° C., 1 hour. As for the experimental part:
Assay for Inhibitory Effects on Human SGLT2 Activity
1) Cloning and Construction of the Vector Expressing Human SGLT2
The cDNA library was prepared for PCR amplification by reverse transcription from total RNA deprived from human kidney (Ori gene) using oligo-dT as a primer. Using this cDNA library as a template, the DNA fragment coding 2 to 2039 bp of human SGLT2 (ACCESSION: M95549, M95299), which was reported by R. G. Wells et al., was amplified by PCR method and inserted into the multi-cloning site of pcDNA3.1 (−) (Invitrogen). The DNA sequence inserted was perfectly matched to the previously reported sequence.
2) Establishment of Cell Line Stably Expressing Human SGLT2
The expression vector of human SGLT2 was digested by Sca I into a linear DNA. The linear DNA was transfected into CHO-K1 cells by means of lipofection (Effectene Transfection Reagent: QIAGEN). Neomycin resistant cell lines were selected by culture in the medium containing G418 (1 mg/mL, LIFE TECHNOLOGIES), and then the activity against the uptake of methyl-α-D-glucopyranoside was measured by the method described below. […] CS2-5E cells were cultured in the presence of G418 at 200 μg/mL. […]
CS2-5E cells were seeded into a 96-well culture plate at a density of 3×10^4 cells/well and cultured for 2 days, and were used in the uptake assay. […] Radio activity was measured by means of micro-scintillation counter TopCount (Packard). […]

Regarding `OC[C@H]1O[C@@H](c2ccc3scc(CCc4ccccc4)c3c2)[C@H](O)[C@@H](O)[C@@H]1O` [Example 1, 1-[3-(2-Phenylethyl)benzo[b]thiophen-5-yl]-1-deoxy-β-D-glucopyranose], in assay [1], the IC50 turned out to be 1.5 µM.

In the case of `CCc1ccc(Cc2csc3ccc([C@@H]4O[C@H](CO)[C@@H](O)[C@H](O)[C@H]4O)cc23)cc1` [Example 9], the 50% inhibitory concentration (IC50) in assay [2] was 0.0014 µM.

Regarding `COc1cc2occ(CCc3ccccc3)c2cc1[C@@H]1O[C@H](CO)[C@@H](O)[C@H](O)[C@H]1O` [Example 2, 1-[6-Methoxy-3-(2-phenylethyl)benzo[b]furan-5-yl]-1-deoxy-β-D-glucopyranose], the 50% inhibitory concentration (IC50) in assay [2] was determined as 0.057 µM.

The values are drawn from patent US8058245B2, “Fused heterocycle derivative, medicinal composition containing the same, and medicinal use thereof” (Kissei Pharmaceutical Co., Ltd., priority 2004, dated 2011).
